Measurements taken from paper PMC5712521, “Dendrogenin A drives LXR to trigger lethal autophagy in cancers” (Nature Communications, 2017).

Columns and labels:
[1] = test system: B16F10 cells; experiment: DDA-induced cytotoxicity (cell death); format: cell-based; details: B16F10; 5 µM 22(R)HC, 0.5 µM TO, 1 µM GW
Description: (§1) Melanoma cells were seeded into 6-well plates at 60,000 cells per well and AML cells at 250,000 cells/ml. The cells were then treated with control solvent vehicle (1/1000 ethanol in water) or DDA. Where indicated, treated cells were incubated in the presence or absence of each inhibitor for time shown. Cell death was determined by the trypan blue exclusion assay. Cells were scraped and resuspended in trypan blue solution (0.25% (w/v) in PBS) and counted in a Malassez cell under light microscopy. Cell viability was then quantified by counting viable (trypan blue-negative) and dead cells (trypan blue-positive).
(§2) Supplementary Fig. 1. a DDA inhibited m elanom a colony form ation. Melanom a cells were […]
(§3) a 0.5% solution of crystal violet in water and analyzed by microscopy. Images are representative of 5 independent experiments. b Evaluation of DDA-induced cytotoxicity (cytotox) and clonogenicity (clono) inhibition in a subset of human (H) and mouse (M) m elanom a cell lines. T he BRaf status in m elanom a cells lines is shown. […]

[2] = test system: SKMEL-28 cells; experiment: DDA-induced cytotoxicity (cell death); format: cell-based; details: SKMEL-28; 5 µM 22(R)HC, 0.5 µM TO, 1 µM GW
Description: as §1, §2, §3

[3] = test system: HL60 cells; experiment: qRT-PCR of Nur77 and NOR1; format: cell-based, human; details: HL60, 24 h; 5 µM DDA, 2 µM TO, 2 µM GW, 10 µM 22(R)HC
Description: (§4) Total RNA was extracted from tumor cells or MEFs using an RNA Extraction kit (Qiagen) or Trizol (Invitrogen), respectively, and was quantified with NanoDrop. Complementary DNA (cDNA) synthesis was performed with 1 μg RNA iScript Reverse Transcriptase (Bio-Rad). 25 ng cDNA was amplified using SyBR Supermix (Bio-Rad). RNA expression of the different genes of interest (Supplementary Tables 1, 2) were determined using the ΔΔCT method, where the difference in the threshold cycle (ΔCT) values of the target gene and the housekeeping gene for each sample was normalized to the ΔCT value of the untreated sample.
(§5) Supplementary Fig. 6. […]
(§6) D ata are expressed relative to the control (solvent vehic le). D ata from b, f, g, h, j, p, q ar e the m eans ± S.E.M. of 3 independent experiments performed in triplicate (*P<0.05, **P<0.01, ***P<0.001, t test). Images are representative of 3 independent experim ents.

[4] = test system: KG1 cells; experiment: qRT-PCR of Nur77 and NOR1; format: cell-based, human; details: KG1, 24 h; 5 µM DDA, 2 µM TO, 2 µM GW, 10 µM 22(R)HC
Description: as §4, §5, §6

[5] = test system: SKMEL-28 cells; experiment: RT-qPCR of LXR-responsive genes; format: cell-based, human; details: 8 h, 2.5 µM DDA, 10 µM 22(R)HC, 1 µM GW, 100 nM TO, vs vehicle
Description: as §4
Supplementary Fig. 4. a R egulat ion of LXR-responsive genes b y D DA and other k nown LXR
ligands in B16F10 and SKMEL- 28 cells transfected with s iRN A targeting LXRβ ( siLXRβ) or
with contro l siRN A scram ble (siSC). Cells were treated for 8 h with either solvent vehicle, 2.5
µM DD A, 10 µM 22(R) hydrox ycholesterol (22(R)HC), 1 µM GW 3965 (GW ) or 100 nM
T O901317 (T O). […]

[6] = test system: SKMEL-28 cells; experiment: Sterol analysis by GC/MS; format: cell-based, human; details: SKMEL-28, 24 h; 10 µM 22(R)HC, 1 µM GW, 100 nM TO; GC/MS
Description: (§7) Sterols in cell homogenates were extracted with a solvent mixture containing chloroform/methanol 2/1 (v/v) spiked with epicoprostanol as the internal standard. Lipids were partitioned in chloroform after the addition of saline and saponified by methanolic potassium hydroxide (0.5 N, 60 °C, 15 min). The fatty acids released were methylated with BF3-methanol (12%, 60 °C, 15 min) to not interfere with the chromatography of sterols. The sterols were re-extracted in hexane and silylated, as described previously. The trimethylsilylether derivatives of the sterols were separated by gas chromatography (GC) (Hewlett–Packard 6890 series) in a medium polarity capillary column RTX-65, (65% diphenyl 35% dimethyl polysiloxane, length 30 m, diameter 0.32 mm, film thickness 0.25 μm (Restesk, Evry, France)). The mass spectrometer (Agilent 5975 inert XL) in series with the GC was set up for the detection of positive ions. Ions were produced in the electron impact mode at 70 eV. Sterols were identified by the fragmentogram in the scanning mode and quantified by selective monitoring of the specific ions after normalization with the internal standard epicoprostanol and calibration with weighed standards. […]
Quantification of sterols ac cum ulation in SKMEL- 2 8 c ells either expressing LXRβ (shCT L) or with LXRβ (sh3 or sh4LXR β) k nock ed down after 24 h treatm ent with 2.5 µ M DD A or solvent vehicle. Anal yses were perform ed by GC/MS. f Quantification of sterols accumulated in m elanom a cells after 24 h treatm ent with 10 µM 22(R) HC, 1 µ M GW , 100 nM T O or solvent […]
(§8) vehicle. […]

[7] = test system: B16F10 cells; experiment: Sterol analysis by GC/MS; format: cell-based, mouse; details: B16F10, 24 h, 10 µM 22(R)HC, 1 µM GW, 100 nM TO
Description: as §7
Anal yses were perform ed by GC/MS. f Quantification of sterols accumulated in
m elanom a cells after 24 h treatm ent with 10 µM 22(R) HC, 1 µ M GW , 100 nM T O or solvent
as §8

SMILES | cell death [1] | cell death [2] | NOR1 mRNA levels (Fold over control) [3] [fold] | Nur77 mRNA levels (Fold over control) [3] [fold] | NOR1 mRNA levels (Fold over control) [4] [fold] | Nur77 mRNA levels (Fold over control) [4] [fold] | ABCA1 mRNA ([5]; SKMEL-28, siCT) [fold] | ABCG1 mRNA ([5]; SKMEL-28, siCT) [fold] | ABCG5 mRNA ([5]; SKMEL-28, siCT) [fold] | ABCG8 mRNA ([5]; SKMEL-28, siCT) [fold] | LC3A mRNA ([5]; SKMEL-28, siCT) [fold] | LC3B mRNA ([5]; SKMEL-28, siCT) [fold] | LDLR mRNA ([5]; SKMEL-28, siCT) [fold] | NOR1 mRNA ([5]; SKMEL-28, siCT) [fold] | Nur77 mRNA ([5]; SKMEL-28, siCT) [fold] | SCD1 mRNA ([5]; SKMEL-28, siCT) [fold] | SREBP1 mRNA ([5]; SKMEL-28, siCT) [fold] | SULT2B1b mRNA ([5]; SKMEL-28, siCT) [fold] | ABCA1 mRNA ([5]; SKMEL-28, siLXRβ) [fold] | ABCG1 mRNA ([5]; SKMEL-28, siLXRβ) [fold] | other results
O=C(O)Cc1cccc(OCCCN(Cc2cccc(C(F)(F)F)c2Cl)CC(c2ccccc2)c2ccccc2)c1 [GW, GW3965] | no impact on cell death | no impact on cell death | 0.3 | 1.3 | 1.8 | 0.8 | 15.1±2 | 3.2±0.5 | 3.1±0.5 | 1.5±0.1 | 0.8±0.2 | 0.9±0.1 | 1.0±0.2 | 1.5±0.1 | 0.7±0.2 | 1.6±0.1 | 2.6±0.3 | 2.8±0.1 | 2.2±0.3 | 1.2±0.1 | ABCG5 mRNA ([5]; SKMEL-28, siLXRβ): 1.1±0.1 fold; ABCG8 mRNA ([5]; SKMEL-28, siLXRβ): 0.8±0.1 fold; LC3A mRNA ([5]; SKMEL-28, siLXRβ): 1.0±0.3 fold; LC3B mRNA ([5]; SKMEL-28, siLXRβ): 1.1±0.3 fold; LDLR mRNA ([5]; SKMEL-28, siLXRβ): 0.9±0.1 fold; NOR1 mRNA ([5]; SKMEL-28, siLXRβ): 0.8±0.1 fold; Nur77 mRNA ([5]; SKMEL-28, siLXRβ): 0.9±0.2 fold; SCD1 mRNA ([5]; SKMEL-28, siLXRβ): 1.1±0.1 fold; SREBP1 mRNA ([5]; SKMEL-28, siLXRβ): 1.5±0.2 fold; SULT2B1b mRNA ([5]; SKMEL-28, siLXRβ): 1.1±0.2 fold; Sterol amount/total sterol: 8-DHC [6]: 0.07± 0.01; Sterol amount/total sterol: zymostenol [6]: 0.29± 0.09; Sterol amount/total sterol: 8-DHC [7]: 0.05± 0.005; Sterol amount/total sterol: zymostenol [7]: 0.11 ± 0.08
CC(C)CC[C@@H](O)[C@@H](C)[C@H]1CC[C@H]2[C@@H]3CC=C4C[C@@H](O)CC[C@]4(C)[C@H]3CC[C@]12C [22(R)HC, 22(R)-hydroxycholesterol] | no impact on cell death | no impact on cell death | 0.7 | 0.8 | 6.3 | 1.1 | 6.5±0.1 | 2.1±0.2 | 4.5±0.1 | 0.4±0.1 | 1.0±0.2 | 0.9±0.2 | 0.4±0.1 | 1.8±0.1 | 1.6±0.2 | 1.0±0.2 | 2.3±0.2 | 1.9±0.1 | 1.5±0.1 | 0.2±0.1 | ABCG5 mRNA ([5]; SKMEL-28, siLXRβ): 1.7±0.3 fold; ABCG8 mRNA ([5]; SKMEL-28, siLXRβ): 0.7±0.2 fold; LC3A mRNA ([5]; SKMEL-28, siLXRβ): 1.0±0.2 fold; LC3B mRNA ([5]; SKMEL-28, siLXRβ): 1.0±0.1 fold; LDLR mRNA ([5]; SKMEL-28, siLXRβ): 1.1±0.1 fold; NOR1 mRNA ([5]; SKMEL-28, siLXRβ): 1.2±0.2 fold; Nur77 mRNA ([5]; SKMEL-28, siLXRβ): 0.8±0.2 fold; SCD1 mRNA ([5]; SKMEL-28, siLXRβ): 0.8±0.1 fold; SREBP1 mRNA ([5]; SKMEL-28, siLXRβ): 0.9±0.3 fold; SULT2B1b mRNA ([5]; SKMEL-28, siLXRβ): 1.0±0.2 fold; Sterol amount/total sterol: 8-DHC [6]: 0.05± 0.03; Sterol amount/total sterol: zymostenol [6]: 0.37± 0.07; Sterol amount/total sterol: 8-DHC [7]: 0.08± 0.006; Sterol amount/total sterol: zymostenol [7]: 0.24± 0.08
O=S(=O)(c1ccccc1)N(CC(F)(F)F)c1ccc(C(O)(C(F)(F)F)C(F)(F)F)cc1 [TO, TO901317] | no impact on cell death | no impact on cell death | 2.7 | 0.4 | 1.1 | 1.5 | 4.2±1.2 | 2.8±0.5 | 3.1±0.5 | 1.5±0.1 | 0.8±0.1 | 0.9±0.2 | 1.0±0.2 | 1.7±0.1 | 1.1±0.2 | 1.8±0.2 | 1.8±0.3 | 1.8±0.2 | 2.2±0.3 | 1.1±0.2 | ABCG5 mRNA ([5]; SKMEL-28, siLXRβ): 1.1±0.1 fold; ABCG8 mRNA ([5]; SKMEL-28, siLXRβ): 0.8±0.1 fold; LC3A mRNA ([5]; SKMEL-28, siLXRβ): 0.9±0.1 fold; LC3B mRNA ([5]; SKMEL-28, siLXRβ): 0.9±0.1 fold; LDLR mRNA ([5]; SKMEL-28, siLXRβ): 0.9±0.1 fold; NOR1 mRNA ([5]; SKMEL-28, siLXRβ): 1.0±0.2 fold; Nur77 mRNA ([5]; SKMEL-28, siLXRβ): 1.1±0.2 fold; SCD1 mRNA ([5]; SKMEL-28, siLXRβ): 1.2±0.2 fold; SREBP1 mRNA ([5]; SKMEL-28, siLXRβ): 1.3±0.2 fold; SULT2B1b mRNA ([5]; SKMEL-28, siLXRβ): 1.3±0.2 fold; Sterol amount/total sterol: 8-DHC [6]: 0.04± 0.02; Sterol amount/total sterol: zymostenol [6]: 0.36± 0.08; Sterol amount/total sterol: 8-DHC [7]: 0.04± 0.005; Sterol amount/total sterol: zymostenol [7]: 0.12± 0.09
